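Dose response: 5 concentrations. Exposure: 48 h. Format: 96-well plates. Endpoint: linear interpolation; highest concentration if not reached. Here, GI50 denotes the concentration required for 50% inhibition of growth.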 Activity calls are given as the source filed them. No stated cut-off is given here; in the data, active = GI50 up to about 1.1 µM and inactive = higher.
Key:
Experiment in all cases: inhibition of tumour cell growth, NCI panel, 48 h
[1] = system: PC-3
[2] = system: IGROV-1
[3] = system: NCI/ADR-RES
[4] = system: UO-31
[5] = system: DU-145
[6] = system: A498
[7] = system: 786-0
[8] = system: MCF7
[9] = system: HCT-116
[10] = system: SW-620
[11] = system: CCRF-CEM
[12] = system: NCI-H23
[13] = system: OVCAR-8
[14] = system: MOLT-4
[15] = system: EKVX
[16] = system: SNB-19
[17] = system: OVCAR-5
[18] = system: Hs-578T
[19] = system: BT-549

SMILES | GI50 [1] | GI50 [2] | GI50 [3] | GI50 [4] | GI50 [5] | GI50 [6] | GI50 [7] | GI50 [8] | GI50 [9] | GI50 [10] | GI50 [11] | GI50 [12] | GI50 [13] | GI50 [14] | GI50 [15] | GI50 [16] | GI50 [17] | GI50 [18] | GI50 [19]
O=C(NNCC(O)COc1ccccc1)c1ccccc1 (stereo not given) | > 100 µM (inactive) | > 100 µM (inactive) | > 100 µM (inactive) | > 100 µM (inactive) | > 100 µM (inactive) | > 100 µM (inactive) | > 100 µM (inactive) | > 100 µM (inactive) | > 100 µM (inactive) | > 100 µM (inactive) | > 100 µM (inactive) | > 100 µM (inactive) | > 100 µM (inactive) | > 100 µM (inactive) | > 100 µM (inactive) | > 100 µM (inactive) | > 100 µM (inactive) |  | 
COc1ccc2oc(=O)c(-c3csc(C)n3)cc2c1 | > 100 µM (inactive) | 49.4 µM (inactive) |  | 69.2 µM (inactive) | > 100 µM (inactive) |  | 54.2 µM (inactive) | > 100 µM (inactive) | 58.3 µM (inactive) | > 100 µM (inactive) | > 100 µM (inactive) |  |  | > 100 µM (inactive) | 56.5 µM (inactive) | 28.8 µM (inactive) | > 100 µM (inactive) | 30.7 µM (inactive) | 15.8 µM (inactive)
CCCCCCCCCC(=O)CC(=O)c1c(O)cc(O)cc1O | 17.9 µM (inactive) | 26.5 µM (inactive) | 16.6 µM (inactive) | 15.5 µM (inactive) | 22.4 µM (inactive) | 22.6 µM (inactive) | 28 µM (inactive) | 39.1 µM (inactive) | 24.4 µM (inactive) | 25.6 µM (inactive) | 34.3 µM (inactive) | 17.3 µM (inactive) | 17.3 µM (inactive) | 12.9 µM (inactive) | 31.5 µM (inactive) | 22.6 µM (inactive) | 19.4 µM (inactive) | 18.5 µM (inactive) | 
CC1(O)/C(=N/O)CC2CC1C2(C)C (stereo not given) |  | > 100 µM (inactive) |  | > 100 µM (inactive) | > 100 µM (inactive) |  | > 100 µM (inactive) | > 100 µM (inactive) |  | > 100 µM (inactive) | > 100 µM (inactive) | > 100 µM (inactive) | > 100 µM (inactive) | > 100 µM (inactive) |  | > 100 µM (inactive) | > 100 µM (inactive) | > 100 µM (inactive) | > 100 µM (inactive)
O=C1NC2c3c(I)sc(I)c3C(O)C2O1 (stereo not given) | > 100 µM (inactive) | > 100 µM (inactive) | > 100 µM (inactive) | > 100 µM (inactive) | > 100 µM (inactive) | > 100 µM (inactive) | > 100 µM (inactive) | > 100 µM (inactive) | > 100 µM (inactive) | > 100 µM (inactive) | 52.8 µM (inactive) | > 100 µM (inactive) | > 100 µM (inactive) | > 100 µM (inactive) | > 100 µM (inactive) | > 100 µM (inactive) | > 100 µM (inactive) | > 100 µM (inactive) | 
COP(=O)(OC)/C(=C\c1cn(C(c2ccccc2)(c2ccccc2)c2ccccc2)cn1)NC(C)=O | > 100 µM (inactive) | > 100 µM (inactive) | > 100 µM (inactive) | > 100 µM (inactive) | > 100 µM (inactive) | > 100 µM (inactive) | > 100 µM (inactive) | 88.3 µM (inactive) | 58.5 µM (inactive) | > 100 µM (inactive) | 77.1 µM (inactive) | > 100 µM (inactive) | > 100 µM (inactive) | 34.4 µM (inactive) | > 100 µM (inactive) | > 100 µM (inactive) | > 100 µM (inactive) | > 100 µM (inactive) | 
CCCNc1ncnc2c1ncn2C | > 100 µM (inactive) | 54.7 µM (inactive) | 68.4 µM (inactive) | 85.1 µM (inactive) | 85.3 µM (inactive) | 22.9 µM (inactive) | 48.8 µM (inactive) | 53.6 µM (inactive) | > 100 µM (inactive) | 94.4 µM (inactive) | 22.1 µM (inactive) | 35.6 µM (inactive) | 48.5 µM (inactive) | 45.3 µM (inactive) | > 100 µM (inactive) | > 100 µM (inactive) |  |  | 
COc1ccc(CC2c3c(cc(OC)c(OC)c3OC)CCN2C)cc1OC (stereo not given) |  |  |  | > 100 µM (inactive) |  | > 100 µM (inactive) | > 100 µM (inactive) |  | > 100 µM (inactive) | > 100 µM (inactive) | > 100 µM (inactive) | > 100 µM (inactive) | > 100 µM (inactive) | > 100 µM (inactive) | > 100 µM (inactive) | > 100 µM (inactive) | > 100 µM (inactive) |  | 
O=S(=O)(c1ccccc1)c1ccc(-c2nc(-c3ccc4c(c3)Sc3ccccc3S4)cs2)cc1 | > 100 µM (inactive) |  |  | > 100 µM (inactive) | > 100 µM (inactive) |  | 17.2 µM (inactive) | 61 µM (inactive) | 73.3 µM (inactive) | > 100 µM (inactive) | 41.9 µM (inactive) | 11.2 µM (inactive) | 71.9 µM (inactive) | 31.6 µM (inactive) | 39.8 µM (inactive) | 11.7 µM (inactive) | > 100 µM (inactive) | 8.69 µM (inactive) | 30.3 µM (inactive)
CC(=O)/N=C1\C=C(NC(C)=O)C(=O)c2ccccc21 | 2.9 µM (inactive) | 1.71 µM (inactive) | 2.51 µM (inactive) | 2.04 µM (inactive) |  | 15.2 µM (inactive) | 1.81 µM (inactive) | 1.76 µM (inactive) | 1.49 µM (inactive) | 1.93 µM (inactive) | 2.84 µM (inactive) | 0.451 µM (active) | 2.21 µM (inactive) | 1.98 µM (inactive) | 5.19 µM (inactive) | 3.03 µM (inactive) | 2.13 µM (inactive) | 6.28 µM (inactive) | 2.17 µM (inactive)
CC(=O)c1ccc(Br)cc1NC1=CC(=O)c2ncccc2C1=O | 3.95 µM (inactive) | 2.69 µM (inactive) | 3.9 µM (inactive) | 3.86 µM (inactive) | 4.36 µM (inactive) | 1.57 µM (inactive) | 3.71 µM (inactive) | 1.38 µM (inactive) | 1.9 µM (inactive) |  | 3.47 µM (inactive) | 2 µM (inactive) | 5.53 µM (inactive) | 2.29 µM (inactive) | 6.4 µM (inactive) | 3.84 µM (inactive) | 13.1 µM (inactive) | 17.1 µM (inactive) | 
CCCn1c(SCCSc2c3ccccc3c(-c3nc(F)nc(F)n3)n2CCC)c2ccccc2c1-c1nc(F)nc(F)n1 |  |  |  | > 100 µM (inactive) |  |  | > 100 µM (inactive) |  | > 100 µM (inactive) | 13.8 µM (inactive) | 46.9 µM (inactive) | > 100 µM (inactive) | > 100 µM (inactive) | > 100 µM (inactive) | > 100 µM (inactive) | > 100 µM (inactive) | > 100 µM (inactive) |  | 
O=C(NC1CCCCC1)N1CCNC1=S |  | > 100 µM (inactive) | > 100 µM (inactive) | > 100 µM (inactive) | > 100 µM (inactive) | > 100 µM (inactive) | > 100 µM (inactive) |  | > 100 µM (inactive) | > 100 µM (inactive) | > 100 µM (inactive) | > 100 µM (inactive) | > 100 µM (inactive) | > 100 µM (inactive) | 9.53 µM (inactive) |  | > 100 µM (inactive) | > 100 µM (inactive) | 66.4 µM (inactive)
CCC(C)C(NC(=O)c1c2ccccc2nc2ccccc12)C(=O)O (stereo not given) | > 100 µM (inactive) | 86.5 µM (inactive) | > 100 µM (inactive) | 25.1 µM (inactive) | > 100 µM (inactive) | > 100 µM (inactive) | > 100 µM (inactive) | 98.9 µM (inactive) | > 100 µM (inactive) | > 100 µM (inactive) | 31.7 µM (inactive) | 83 µM (inactive) | > 100 µM (inactive) | > 100 µM (inactive) | > 100 µM (inactive) | > 100 µM (inactive) | > 100 µM (inactive) |  | 22.6 µM (inactive)
COC(=O)[C@H](C)NC(=O)[C@H](CSC)N1C(=O)N[C@@H](C(C)C)C1=O | > 100 µM (inactive) | > 100 µM (inactive) | > 100 µM (inactive) | > 100 µM (inactive) | > 100 µM (inactive) |  | > 100 µM (inactive) | > 100 µM (inactive) | > 100 µM (inactive) | > 100 µM (inactive) | 29.6 µM (inactive) | > 100 µM (inactive) | > 100 µM (inactive) | 32.7 µM (inactive) | > 100 µM (inactive) | > 100 µM (inactive) | > 100 µM (inactive) |  | > 100 µM (inactive)
Cc1cc2ccccc2c[n+]1CC(=O)CC([O-])(C(F)(F)F)C(F)(F)F | > 100 µM (inactive) | 41.3 µM (inactive) | > 100 µM (inactive) | > 100 µM (inactive) | > 100 µM (inactive) | 36.1 µM (inactive) | > 100 µM (inactive) |  | > 100 µM (inactive) | > 100 µM (inactive) | 90.8 µM (inactive) | 87.5 µM (inactive) | > 100 µM (inactive) | 79.8 µM (inactive) | > 100 µM (inactive) | > 100 µM (inactive) | > 100 µM (inactive) | > 100 µM (inactive) | 
O=C(Cn1c2ccc(Br)cc2c2nc3ccccc3nc21)N1CCOCC1 | 95.7 µM (inactive) | 49.7 µM (inactive) | 47.9 µM (inactive) | > 100 µM (inactive) | > 100 µM (inactive) | > 100 µM (inactive) | > 100 µM (inactive) |  | 50.2 µM (inactive) | > 100 µM (inactive) | > 100 µM (inactive) | 53 µM (inactive) | 44.3 µM (inactive) | > 100 µM (inactive) |  | > 100 µM (inactive) | > 100 µM (inactive) | 49.1 µM (inactive) | > 100 µM (inactive)

Source: ChEMBL document CHEMBL1201862, “PubChem BioAssay data set” (2004)
